According to ChEMBL document CHEMBL1156452, “Minocycline down-regulates MHC II expression in microglia and macrophages through inhibition of IRF-1 and protein kinase C (PKC)alpha/betaII” (J Biol Chem, 2007):
Each block holds one compound with its values, some of them ahead of it. The source made the active and inactive calls. No cut-off for these calls is given here.

Assays:
[1] = system: Macrophage; test: Inhibition of MHC2 expression in Sprague-Dawley rat peritoneal macrophages at 1.3 uM after 24 hrs by immunostaining; type: functional, cell-based
[2] = Decrease in IFN-gamma-induced MHC2 expression in Sprague-Dawley rat primary microglial cells at 1.3 uM; type: cell-based; design: scale not given: the % may be the effect or the level left; details: Microglia
[3] = Decrease in IFN-gamma-induced MHC2 protein levels in Sprague-Dawley rat primary microglial cells at 1.3 uM by Western blotting; type: functional, Microglia; design: scale not given: the % may be the effect or the level left
[4] = system: Microglia; test: Inhibition of IFN-gamma-induced IFN-gamma regulatory factor levels in Sprague-Dawley rat primary microglial cells by Western blotting; type: functional, cell-based
[5] = target: T1, Interferon regulatory factor 1 (Rattus norvegicus) (UniProt P23570); test: Suppression of IFN-gamma-induced IFN-gamma regulatory factor 1 nuclear translocation in Sprague-Dawley rat primary microglial cells at 1.3 uM by Western blotting
T1 sequence (whole entry): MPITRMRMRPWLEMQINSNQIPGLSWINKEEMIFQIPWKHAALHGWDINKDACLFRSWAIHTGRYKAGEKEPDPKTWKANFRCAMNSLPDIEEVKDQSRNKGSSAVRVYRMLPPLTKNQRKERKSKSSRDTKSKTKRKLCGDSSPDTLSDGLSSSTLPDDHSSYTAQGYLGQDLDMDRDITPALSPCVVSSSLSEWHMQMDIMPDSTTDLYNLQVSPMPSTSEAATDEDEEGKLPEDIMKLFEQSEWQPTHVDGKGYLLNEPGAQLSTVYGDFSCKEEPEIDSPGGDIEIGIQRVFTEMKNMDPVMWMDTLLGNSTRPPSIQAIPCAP

[6] = target: Protein kinase C beta type (Homo sapiens, UniProt P05771); test: Inhibition of PKCbeta1
[7] = target: Protein kinase C alpha type (Homo sapiens, UniProt P17252); test: Inhibition of PKCalpha
[8] = species: Rattus norvegicus; test: Suppression of IFN-gamma-induced PKCalpha/beta2 nuclear translocation in Sprague-Dawley rat primary microglial cells at 1.3 uM by Western blotting
[9] = system: Rattus norvegicus; test: Decrease in number of MOG-induced inflammatory lesions in spinal cord of dark agouti rat experimental allergic encephalomyelitis model at 45 mg/kg, ip administered twice a day at the first day of clinical signs and once a day for 14 days by hematoxylin and eosin staining; type: functional, organism-based; design: dose 45 mg/kg
[10] = Decrease in IFN-gamma-induced MHC2 protein levels in Sprague-Dawley rat primary microglial cells at 100 uM by Western blotting; type: functional, Microglia; design: scale not given: the % may be the effect or the level left
[11] = target: Protein kinase C alpha type (Rattus norvegicus) (UniProt P05696); test: Decrease in PKCalpha phosphorylation in Sprague-Dawley rat peritoneal macrophages at 100 uM after 24 hrs
[12] = target: T1, Interferon regulatory factor 1 (Rattus norvegicus); test: Suppression of IFN-gamma-induced IFN-gamma regulatory factor 1 nuclear translocation in Sprague-Dawley rat primary microglial cells at 100 uM by Western blotting
[13] = system: Rattus norvegicus; test: Decrease in size of MOG-induced inflammatory lesions in spinal cord of dark agouti rat experimental allergic encephalomyelitis model at 45 mg/kg, ip administered twice a day at the first day of clinical signs and once a day for 14 days by hematoxylin and eosin staining; type: functional, organism-based; design: dose 45 mg/kg
[14] = Decrease in IFN-gamma-induced CIITA mRNA expression in Sprague-Dawley rat primary microglial cells at 100 uM after 24 hrs by RT-PCR; type: functional, cell-based; details: Microglia
[15] = system: Rattus norvegicus; test: Decrease in accumulation of CD11b+ cells in spinal cord of dark agouti rat experimental allergic encephalomyelitis model at 45 mg/kg, ip administered twice a day at the first day of clinical signs and once a day for 14 days by immunostaining; type: functional; design: scale not given: the % may be the effect or the level left; details: route intraperitoneal
[16] = species: Rattus norvegicus; test: Suppression of IFN-gamma-induced PKCalpha/beta2 nuclear translocation in Sprague-Dawley rat primary microglial cells at 100 uM by Western blotting
[17] = system: Rattus norvegicus; test: Decrease in accumulation of MHC 2+ cells in spinal cord of dark agouti rat experimental allergic encephalomyelitis model at 45 mg/kg, ip administered twice a day at the first day of clinical signs and once a day for 14 days by immunostaining; type: functional; design: scale not given: the % may be the effect or the level left; details: route intraperitoneal
[18] = Decrease in IFN-gamma-induced MHC2 mRNA levels in Sprague-Dawley rat primary microglial cells at 100 uM after 24 hrs by RT-PCR; type: functional, Microglia; design: scale not given: the % may be the effect or the level left
[19] = system: Macrophage; test: Inhibition of MHC2 expression in Sprague-Dawley rat peritoneal macrophages at 100 uM after 24 hrs by immunostaining; type: functional, cell-based
[20] = species: Rattus norvegicus; test: Reduction in IFN-gamma-induced PKCalpha/beta2 phosphorylation in Sprague-Dawley rat primary microglial cells at 100 uM by Western blotting
[21] = Decrease in IFN-gamma-induced MHC2 expression in Sprague-Dawley rat primary microglial cells at 100 uM; type: functional, cell-based; design: scale not given: the % may be the effect or the level left; details: Microglia

Chain of Protein kinase C beta type (P05771 whole entry): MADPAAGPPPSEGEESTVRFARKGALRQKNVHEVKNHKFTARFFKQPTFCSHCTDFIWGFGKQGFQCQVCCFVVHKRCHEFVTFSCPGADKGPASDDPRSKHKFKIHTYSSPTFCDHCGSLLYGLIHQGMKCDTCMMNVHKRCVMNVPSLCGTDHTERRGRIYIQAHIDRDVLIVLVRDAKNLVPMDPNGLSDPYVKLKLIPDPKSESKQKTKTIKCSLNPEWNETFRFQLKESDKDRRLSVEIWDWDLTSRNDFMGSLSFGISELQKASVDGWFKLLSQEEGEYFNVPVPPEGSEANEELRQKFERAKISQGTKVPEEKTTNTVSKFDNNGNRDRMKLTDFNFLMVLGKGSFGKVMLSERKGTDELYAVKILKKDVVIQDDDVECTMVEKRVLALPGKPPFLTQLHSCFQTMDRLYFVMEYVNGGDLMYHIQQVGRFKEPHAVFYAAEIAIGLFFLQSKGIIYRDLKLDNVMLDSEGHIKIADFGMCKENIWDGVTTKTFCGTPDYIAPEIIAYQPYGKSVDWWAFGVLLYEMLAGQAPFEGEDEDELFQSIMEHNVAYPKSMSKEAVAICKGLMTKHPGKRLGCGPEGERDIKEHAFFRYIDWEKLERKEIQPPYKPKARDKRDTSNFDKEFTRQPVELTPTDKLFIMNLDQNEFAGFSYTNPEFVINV

Compound: Cn1c2ccccc2c2c3c(c4c5ccccc5n(CCC#N)c4c21)CNC3=O [GO-6976]
Activity [1]: Active
Activity [2]: 55%
Activity [3]: 80%
Activity [4]: Active
Activity [5]: Active
IC50 [6]: 6.2 nM
IC50 [7]: 2.3 nM
Activity [8]: Active

Activity [11]: Active
Activity [12]: Active
Activity [16]: Active
Activity [20]: Active
Compound: CN(C)c1ccc(O)c2c1C[C@H]1C[C@H]3[C@H](N(C)C)C(O)=C(C(N)=O)C(=O)[C@@]3(O)C(O)=C1C2=O [MINOCYCLINE]
Activity [9]: Active
Activity [10]: 47%
Activity [13]: Active
Activity [14]: Active
Activity [15]: 24%
Activity [17]: 42%
Activity [18]: 45%
Activity [19]: Active
Activity [21]: 55%
